Measurements published in patent publication US20060167075A1, “Modulators of FAAH” (priority 2005, published 2006).

What was measured:
FAAH [1] = target: T1, FAAH (Rattus norvegicus, UniProt P97612); assay: FAAH activity in rat brain membrane (RBM) homogenate, 3H-anandamide hydrolysis; format: biochemical; conditions: 10 min at 37° C., pH 6.5
T1 construct: FAAH activity was assayed in the respective homogenates (Rat brain or Human brain); from tissue; host or cells: rat brain membrane homogenate (Charles River CD strain)
T1 sequence (P97612 1-579): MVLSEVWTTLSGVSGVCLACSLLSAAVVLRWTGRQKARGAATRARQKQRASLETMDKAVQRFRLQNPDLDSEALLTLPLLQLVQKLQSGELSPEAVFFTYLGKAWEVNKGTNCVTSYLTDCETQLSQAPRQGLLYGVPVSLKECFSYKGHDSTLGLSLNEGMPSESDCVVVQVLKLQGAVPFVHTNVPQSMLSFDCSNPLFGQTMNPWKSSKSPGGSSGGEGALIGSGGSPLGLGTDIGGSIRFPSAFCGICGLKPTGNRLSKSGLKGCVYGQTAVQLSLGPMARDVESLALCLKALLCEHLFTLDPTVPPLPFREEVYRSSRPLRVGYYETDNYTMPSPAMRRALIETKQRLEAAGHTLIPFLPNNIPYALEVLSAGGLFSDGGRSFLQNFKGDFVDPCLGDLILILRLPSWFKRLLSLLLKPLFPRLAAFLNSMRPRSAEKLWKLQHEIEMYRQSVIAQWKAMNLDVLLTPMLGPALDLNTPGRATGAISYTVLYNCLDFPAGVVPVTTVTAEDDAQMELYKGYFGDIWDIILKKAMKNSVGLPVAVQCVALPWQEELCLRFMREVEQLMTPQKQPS
Experimental: (§1) To assess FAAH inhibition, compounds were tested in an assay using rat brain microsomes and an assay using human brain microsomes using the methods described below.
Nine adult rats (Charles River CD strain, female, 200 g) were anaesthetized with isofluorane and rapidly decapitated. Each brain was quickly removed and chilled in tubes (3 brains per tube) on ice. Total wet weight of the 9 brains was ˜18 g. 25 mL of homogenization buffer (20 mM HEPES buffer, pH 7.0, with 1 mM MgCl2) was added to each tube. The brains were homogenized on ice for 1 minute using an Omni GLH homogenizer (Omni International, Marietta, Ga.). The homogenates were transferred to three centrifuge tubes and centrifuged at 36,500 g for 20 minutes at 4° C. The supernatant was discarded and each pellet was re-suspended in 25 ml homogenization buffer. The resuspended material was again centrifuged (36,500g, 20 min at 4° C.). The pellets were combined by resuspension in 10 mL of homogenization buffer and incubated in a 37° C. water bath for 15 min. The tube was then placed on ice for 5 min followed by centrifugation at 36,500 g for 20 minutes at 4° C. The supernatant was discarded and the membrane pellet was then resuspended in 40 mL of resuspension buffer (50 mM Tris-HCl buffer, pH 7.4, containing 1 mM EDTA and 3 mM MgCl2). A Bradford Protein assay was performed to determine protein concentration. […]
(§2) Samples were placed on ice to terminate the reactions. […] Radioactivity (corresponding to FAAH-catalyzed breakdown of ^3H-anandamide) found in aliquots (0.2 ml) of the aqueous phase was determined by liquid scintillation counting with quench correction.
(§3) The method of Wilson et al. was modified by acidifying the reaction mixtures by the addition of 10 μl of sodium phosphate solution [0.5M (pH 2.0)] after reactions were incubated at 37° C. for 10 min and chilled on ice. […] The columns were centrifuged and the eluate was counted as described by Wilson et al.

FAAH [2] = target: T2, FAAH (Homo sapiens, UniProt O00519); assay: FAAH activity in human brain membrane (HBM) homogenate, 3H-anandamide hydrolysis; format: biochemical; conditions: 10 min at 37° C., pH 6.5
T2 construct: FAAH activity was assayed in the respective homogenates (Rat brain or Human brain); tissue Analytical Biological Services (ABS), Inc; host or cells: human brain cortex membrane homogenate, pooled from three donors
T2 sequence (O00519 1-579): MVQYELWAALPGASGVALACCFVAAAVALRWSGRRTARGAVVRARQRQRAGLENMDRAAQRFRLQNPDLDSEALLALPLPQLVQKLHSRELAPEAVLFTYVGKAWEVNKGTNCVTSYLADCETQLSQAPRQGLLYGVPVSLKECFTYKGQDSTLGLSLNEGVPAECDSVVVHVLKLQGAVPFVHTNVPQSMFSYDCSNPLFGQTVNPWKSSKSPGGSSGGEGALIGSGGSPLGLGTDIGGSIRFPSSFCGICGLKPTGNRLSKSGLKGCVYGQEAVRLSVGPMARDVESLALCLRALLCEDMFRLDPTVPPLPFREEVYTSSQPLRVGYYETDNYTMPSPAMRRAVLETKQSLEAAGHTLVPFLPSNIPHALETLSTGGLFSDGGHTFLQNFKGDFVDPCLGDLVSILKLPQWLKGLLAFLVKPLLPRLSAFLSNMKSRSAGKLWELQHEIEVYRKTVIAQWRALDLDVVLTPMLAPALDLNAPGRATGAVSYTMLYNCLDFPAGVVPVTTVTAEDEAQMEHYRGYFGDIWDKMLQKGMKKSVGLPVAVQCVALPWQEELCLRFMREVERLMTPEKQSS
Experimental: as §1
10 g of normal human brain cortex tissue pooled from three donors was purchased from Analytical Biological Services (ABS), Inc. (Wilmington, Del.). The tissue had been collected by ABS, Inc. ˜4 hrs post mortem and was flash frozen and stored at −80° C. The brain tissue was thawed and transferred to a large ceramic mortar on ice. 50 mL of ice-cold homogenization buffer (20 mM HEPES buffer, pH 7.0, with 1 mM MgCl2) was added to the mortar and the tissue was homogenized with a pestle. The homogenate was centrifuged at 36,500 g for 20 minutes at 4° C. The supernatants were discarded and the pellets re-suspended in homogenization buffer and centrifuged as before. The supernatants were again discarded and the pellets were re-suspended in 30 ml homogenization buffer and incubated in a 37° C. water bath for 20 min. The homogenate was then centrifuged as before. The supernatant was discarded and the membrane pellets were re-suspended in 30 ml resuspension buffer (50 mM Tris-HCl buffer, pH 7.4, containing 1 mM EDTA and 3 mM MgCl2). A Bradford Protein assay was performed to determine protein concentration. The protein suspension was aliquotted into screw cap Cryo tubes each containing ˜200 μL of suspension, flash frozen in liquid nitrogen and stored at −80° C. until used for the assay.
as §2, §3

For `Cc1ccc(-c2cc(C(F)(F)F)nn2-c2ccc(S(N)(=O)=O)cc2)cc1` [Celecoxib, 4-[[5-(p-tolyl)-3-(trifluoromethyl)-1H-pyrazol-1-yl]]benzenesulfonamide], the IC50 (FAAH [1]) was 167 µM.
`COc1ccc2c(c1)c(CC(=O)O)c(C)n2C(=O)c1ccc(Cl)cc1` [Indomethacin] showed an IC50 (FAAH [2]) of 96 µM.
`CS(=O)(=O)c1ccc(C2=C(c3ccccc3)C(=O)OC2)cc1` [Rofecoxib] showed an IC50 (FAAH [1]) of 452 µM and an IC50 (FAAH [2]) of 198 µM.
`Cc1onc(-c2ccccc2)c1-c1ccc(S(N)(=O)=O)cc1` [Valdecoxib, 4-(5-methyl-3-phenyl-isoxazol-4-yl)benzenesulfonamide] gave an IC50 (FAAH [1]) of 280 µM and an IC50 (FAAH [2]) of 41 µM.
